Key:
Adenosine A1 receptor = assay: A1-agonist stimulated [35S]GTPγS binding to G proteins; assay type: biochemical; settings: for GTPγS: normalized to the full agonist CPA
Description: At the end of the incubation, each suspension was filtered and the retained radioactivity determined as described above.

[1] = system: guinea pig isolated heart; assay: Monophasic action potential duration, isolated heart
Description: Signals were considered adequate if they were stable for at least 5-10 min and the amplitudes exceeded 10 mV. The data were digitized at 2 kHz by a DT-2801A digitizing board (Data Translation, Marlboro, Mass.) and were saved for analysis using the Snapshot data acquisition program (Snapshot Storage Scope, HEM Data Corp., Southfield, Mich.). The duration of the atrial and ventricular monophasic action potentials was measured from onset of depolarization to either 50 or 90% of repolarization.

`OC[C@H]1O[C@@H](n2cnc3c(NC4CCCC4)ncnc32)[C@H](O)[C@@H]1O` [CPA, N^6-cyclopentyladenosine, reference compound] showed a GTPγS (Adenosine A1 receptor; Table 1, compounds of Example 2) of 100%, a GTPγS (Adenosine A1 receptor; Table 2, compounds of Example 3) of 100% and a GTPγS (Adenosine A1 receptor; Table 3, compounds of Example 4) of 100%. For the same compound, the “GTPγS (% of CPA)” value (Adenosine A1 receptor; Table 5) was 100 % of CPA.

In the case of `CNC(=O)OC[C@H]1OC(n2cnc3c(N[C@@H]4CCOC4)ncnc32)[C@H](O)[C@@H]1O` (stereo partly drawn) [Compound 6 of Example 2, [(5-{6-[((3R)oxolan-3-yl)amino]purin-9-yl}(3 S,2R,4R)-3,4-dihydroxyoxolan-2-yl)methoxy]-N-methylcarboxamide], the “effect on duration of ventricular or atrial monophasic action potential” value [1] is reported as “no significant effect”, the “duration of atrial monophasic action potential at 50% of repolarization” value ([1]; 20 μM compound, control 41±3) is reported as 41 ± 3 ms and the “duration of atrial monophasic action potential at 90% of repolarization” value ([1]; 20 μM compound, control 66±4) is reported as 74 ± 4 ms. The “duration of ventricular monophasic action potential at 90% of repolarization” value ([1]; 20 μM compound, control 158±4) was 160 ± 7 ms.

— patent US6576620B2, “Method of identifying partial adenosine A1 receptor agonists” (CV Therapeutics, Inc., priority 1999, dated 2003)
